The assay concerns Trichomonas vaginalis. The experiment in a line: In vitro activity against T. vaginalis (IC50 determination). The following applies: 37° C., aerobic, Modified Diamonds Medium. Type of assay: cell-based. On the procedure:
The antiprotozoal e.g. antitrichomonal, activity of the compounds of the present invention may be assessed by conventional methods, for example by determining the minimum inhibition concentration (m.i.c.) or 50% inhibition level (IC50).
Modified Diamonds Medium (MDM) was prepared according to the method described in J. Kulda et al., American Journal of Obstetrics and Gynaecology 1970, 108, 908-18 and 4 cm^3 of the medium was pipetted into each of a series of tubes (usually 16 tubes). To each tube was added 0.5 cm^3 of varying concentration of a solution (usually in ethanol+MDM) or suspension of the test drug. Duplicate tubes for each drug concentration were prepared.
Finally, to each tube was added T. vaginalis (0.5 cm^3) at a concentration of 1×10^5 cm^-3,) to give a final trichomonad concentration of 1×10^4 cm^-3 in each tube. The tubes were then incubated (aerobically) at 37° C. and the resulting trichomonad numbers were counted at 24 and 48 hours using a haemacytometer.
This information was then used to determine the 50% inhibition concentration (IC50).

[1] abbreviates: 24 hr, 1×10^4 trichomonads cm^-3, read-out: IC50 24 hr.
Where [2] appears, read: 48 hr, 1×10^4 trichomonads cm^-3, read-out: IC50 48 hr.

This is an account of results in patent US4968698A, “Nitrogen containing heterocyclic compounds” (Burroughs Wellcome Co., priority 1984, dated 1990).

Converted amounts (≈) assume the structure as drawn. Read-outs that look alike come from different tables or passages of the source.

With `CCCCOc1ccc2c(c1)CCN=C2C=Cc1ccccc1Cl` [Example 12, 6-Butyloxy-1-(2-chlorostyryl)-3,4-dihydroisoquinoline], the IC50 (in general, the midpoint of a concentration-inhibition curve) came to 1.2 µg/mL (≈ 3.53 µM) under setting [1] and 2 µg/mL (≈ 5.88 µM) under setting [2].

Take `CCCCOc1ccc2c(c1)CCN=C2C=Cc1ccc(OC)cc1OC` [Example 14, 6-Butyloxy-3,4-dihydro-1-(2,4-dimethoxystyryl)isoquinoline]: the IC50 was 5.5 µg/mL (≈ 15 µM) under setting [1] and 8 µg/mL (≈ 21.9 µM) under setting [2].

`CCCCOc1ccc2c(c1)CCN=C2C=Cc1ccc(C(C)(C)C)cc1` [Example 15, 6-Butyloxy-1-(4-t-butylstyryl)-3,4-dihydroisoquinoline]: the IC50 is 1.5 µg/mL (≈ 4.15 µM) under setting [1] and 2.8 µg/mL (≈ 7.74 µM) under setting [2].

Regarding `CCCCOc1ccc2c(c1)CCN=C2C=Cc1ccc([N+](=O)[O-])cc1` [Example 19, 6-Butyloxy-3,4-dihydro-1-(4-nitrostyryl)isoquinoline], the IC50 was found to be 10 µg/mL (≈ 28.5 µM) under setting [1] and 13.5 µg/mL (≈ 38.5 µM) under setting [2].

Take `CCCCOc1ccc2c(c1)CCN=C2C=Cc1ccc(-c2ccccc2)cc1` [Example 24, 6-Butyloxy-3,4-dihydro-1-(4-phenylstyryl)isoquinoline]: the IC50 by setting is: under setting [1], 1.2 µg/mL (≈ 3.15 µM); under setting [2], 128 µg/mL (≈ 336 µM).

Turning to `CC(C)(C)CCOc1ccc2c(c1)CCN=C2C=Cc1ccc(Cl)cc1Cl` [Example 33, 1-(2,4-Dichlorostyryl)-3,4-dihydro-6-(3,3-dimethylbutyloxy)isoquinoline], the IC50 by setting is: under setting [1], 0.7 µg/mL (≈ 1.74 µM); under setting [2], 1 µg/mL (≈ 2.49 µM).

On to `C=CCCOc1ccc2c(c1)CCN=C2C=Cc1ccc(Cl)cc1Cl` [Example 46, 6-(But-3-enyloxy)-1-(2,4-dichlorostyryl)-3,4-dihydroisoquinoline], for which the IC50 runs as follows: under setting [1], 1.1 µg/mL (≈ 2.95 µM); under setting [2], 1.3 µg/mL (≈ 3.49 µM).

Consider `CC(C)COc1ccc2c(c1)CCN=C2C=Cc1ccccc1Cl` [Example 47, 1-(2-Chlorostyryl)-3,4-dihydro-6-(2-methylpropyloxy)-isoquinoline], for which the IC50 is, setting by setting: under setting [1], 1.1 µg/mL (≈ 3.24 µM); under setting [2], 1.7 µg/mL (≈ 5 µM).

Turning to `C(=Cc1ccccc1)C1=NCCc2cc(OCc3ccccc3)ccc21` [Example 53, 6-Benzyloxy-3,4-dihydro-1-styrylisoquinoline], the IC50 runs as follows: under setting [1], 3.2 µg/mL (≈ 9.43 µM); under setting [2], 5.5 µg/mL (≈ 16.2 µM).

As for `COc1ccc(C=CC2=NCCc3cc(OCc4ccccc4)ccc32)c(OC)c1` [Example 56, 6-Benzyloxy-3,4-dihydro-1-(2,4-dimethoxystyryl)isoquinoline], the IC50 reads like this: under setting [1], 8 µg/mL (≈ 20 µM); under setting [2], 8 µg/mL (≈ 20 µM).

`CC(C)(C)c1ccc(C=CC2=NCCc3cc(OCc4ccccc4)ccc32)cc1` [Example 60, 6-Benzyloxy-1-(4-t-butylstyryl)-3,4-dihydroisoquinoline]: the concentration for half-maximal inhibition (IC50) is, setting by setting: under setting [1], 5.6 µg/mL (≈ 14.2 µM); under setting [2], 10.5 µg/mL (≈ 26.5 µM).

Take `Clc1ccc(C=CC2=NCCc3cc(Oc4ccccc4)ccc32)cc1` [Example 65, 1-(4-Chlorostyryl)-3,4-dihydro-6-phenoxy-isoquinoline]: the half-maximal inhibitory concentration (IC50) by setting is: under setting [1], 1.2 µg/mL (≈ 3.33 µM); under setting [2], 1.6 µg/mL (≈ 4.45 µM).

`O=[N+]([O-])c1ccc(C=CC2=NCCc3cc(Oc4ccc(Cl)cc4)ccc32)cc1` [Example 68, 6-(4-Chlorophenoxy)-3,4-dihydro-1-(4-nitrostyryl)-isoquinoline]: the half-maximal inhibitory concentration (IC50) is 5 µg/mL (≈ 12.4 µM) under setting [1] and 5.3 µg/mL (≈ 13.1 µM) under setting [2].

Regarding `CC(C)(C)c1ccc(Oc2ccc3c(c2)CCN=C3C=Cc2ccc(Cl)cc2Cl)cc1` [Example 71, 6-(4-t-Butylphenoxy)-1-(2,4-dichlorostyryl)-3,4-dihydroisoquinoline], the IC50 is 0.8 µg/mL (≈ 1.78 µM) under setting [1] and 1.4 µg/mL (≈ 3.11 µM) under setting [2].

Take `CC(C)(C)c1ccc(Oc2ccc3c(c2)CCN=C3C=Cc2ccccc2)cc1` [Example 73, 6-(4-t-Butylphenoxy)-3,4-dihydro-1-styrylisoquinoline]: the concentration for half-maximal inhibition (IC50) is, setting by setting: under setting [1], 0.4 µg/mL (≈ 1.05 µM); under setting [2], 1.1 µg/mL (≈ 2.88 µM).

In the case of `CCCCCCOc1ccc2c(c1)CCN=C2C=Cc1ccccc1` [Example 74, 6-Hexyloxy-3,4-dihydro-1-styrylisoquinoline], the half-maximal inhibitory concentration (IC50) is 3.3 µg/mL (≈ 9.9 µM) under setting [1] and 0.9 µg/mL (≈ 2.7 µM) under setting [2].

As to `CCCCCCOc1ccc2c(c1)CCN=C2C=Cc1ccc(C#N)cc1` [Example 75, 1-(4-Cyanostyryl)-6-hexyloxy-3,4-dihydroisoquinoline], the IC50 stood at 0.3 µg/mL (≈ 0.837 µM) under setting [1] and 0.8 µg/mL (≈ 2.23 µM) under setting [2].

`CC(C)(C)c1ccc(COc2ccc3c(c2)CCN=C3C=Cc2ccccc2)cc1` [Example 80, 6-(4-t-Butylbenzyloxy)-3,4-dihydro-1-styrylisoquinoline]: the half-maximal inhibitory concentration (IC50) is, setting by setting: under setting [1], 2.5 µg/mL (≈ 6.32 µM); under setting [2], 2.4 µg/mL (≈ 6.07 µM).

As for `CC(C)(C)c1ccc(COc2ccc3c(c2)CCN=C3C=Cc2ccc(Cl)cc2Cl)cc1` [Example 81, 6-(4-t-Butylbenzyloxy)-1-(2,4-dichlorostyryl)-3,4-dihydroisoquinoline], the IC50 under setting [1] turned out to be 1.1 µg/mL (≈ 2.37 µM) and the IC50 under setting [2] turned out to be 1.6 µg/mL (≈ 3.45 µM).

Regarding `C(=Cc1ccc(-c2ccccc2)cc1)C1=NCCc2cc(OCc3ccccc3)ccc21` [Example 82], the 50% inhibitory concentration (IC50) under setting [1] is 0.6 µg/mL (≈ 1.44 µM) and the IC50 under setting [2] was found to be 2 µg/mL (≈ 4.81 µM).

As to `Clc1ccc(COc2ccc3c(c2)CCN=C3C=Cc2ccc(Cl)cc2Cl)cc1` [Example 85, 6-(4-Chlorobenzyloxy)-1-(2,4-dichlorostyryl)-3,4-dihydroisoquinoline], the IC50 under setting [1] amounted to 1.1 µg/mL (≈ 2.48 µM) and the IC50 under setting [2] stood at 1.5 µg/mL (≈ 3.39 µM).

As for `Clc1ccc(C=CC2=NCCc3cc(OCc4ccc(Cl)cc4Cl)ccc32)c(Cl)c1` [Example 92, 6-(2,4-Dichlorobenzyloxy)-1-(2,4-dichlorostyryl)-3,4-dihydroisoquinoline], the 50% inhibitory concentration (IC50) is, setting by setting: under setting [1], 0.5 µg/mL (≈ 1.05 µM); under setting [2], 1 µg/mL (≈ 2.1 µM).

In the case of `C(=C\c1cccs1)/C1=NCCc2cc(OCc3ccccc3)ccc21` [Example 104, (E)-6-Benzyloxy-3,4-dihydro-1-[2-(2-thienyl)vinyl]isoquinoline], the IC50 is 7.4 µg/mL (≈ 21.4 µM) under setting [1] and 7.3 µg/mL (≈ 21.1 µM) under setting [2].

In the case of `CCCCOc1ccc2c(c1)CCN=C2/C=C/c1cccs1` [Example 105, (E)-6-Butyloxy-3,4-dihydro-1-[2-(2-thienyl)vinyl]isoquinoline], the IC50 was 2 µg/mL (≈ 6.42 µM) under setting [1] and 6.7 µg/mL (≈ 21.5 µM) under setting [2].

Take `C(=C\c1ccsc1)/C1=NCCc2cc(OCc3ccccc3)ccc21` [Example 106, (E)-6-Benzyloxy-3,4-dihydro-1-(3-thienyl)vinyl isoquinoline]: the IC50 is, setting by setting: under setting [1], 1.4 µg/mL (≈ 4.05 µM); under setting [2], 3.7 µg/mL (≈ 10.7 µM).

Turning to `Brc1csc(/C=C/C2=NCCc3cc(OCc4ccccc4)ccc32)c1` [Example 108, (E)-6-Benzyloxy-3,4-dihydro-1-[2-(4-bromo-2-thienyl)vinyl]isoquinoline], the concentration for half-maximal inhibition (IC50) was found to be 2.7 µg/mL (≈ 6.36 µM) under setting [1] and 6.1 µg/mL (≈ 14.4 µM) under setting [2].

For `CCCOc1ccc2c(c1)CCN=C2/C=C/c1ccc([N+](=O)[O-])o1` [Example 113, (E)-3,4-Dihydro-6-propyloxy-1-[2-(5-nitro-2-furyl)]vinyl isoquinoline], the IC50 is, setting by setting: under setting [1], 0.7 µg/mL (≈ 2.14 µM); under setting [2], 1.2 µg/mL (≈ 3.68 µM).

As to `O=[N+]([O-])c1ccc(/C=C/C2=NCCc3cc(OCc4ccccc4)ccc32)o1` [Example 115, (E)-6-Benzyloxy-3,4-dihydro-1-[2-(5-nitro-2-furyl)]vinyl isoquinoline], the IC50 runs as follows: under setting [1], 0.4 µg/mL (≈ 1.07 µM); under setting [2], 1 µg/mL (≈ 2.67 µM).

`C(/C=C/c1ccccc1)=C\C1=NCCc2cc(OCc3ccccc3)ccc21` [Example 126, (E,E)-6-Benzyloxy-3,4-dihydro-1-(4-phenylbuta-1,3-dienyl)isoquinoline]: the 50% inhibitory concentration (IC50) under setting [1] worked out at 1.5 µg/mL (≈ 4.1 µM) and the IC50 under setting [2] came out at 1.7 µg/mL (≈ 4.65 µM).

On to `C/C=C/C=C/C1=NCCc2cc(OCCCCCC)ccc21` [Example 129, (E,E)-6-Hexyloxy-3,4-dihydro-1-(penta-1,3-dienyl)isoquinoline], for which the IC50 under setting [1] turned out to be 2.9 µg/mL (≈ 9.75 µM) and the IC50 under setting [2] came out at 3.1 µg/mL (≈ 10.4 µM).

On to `C/C=C/C=C/C1=NCCc2cc(OCc3ccccc3)ccc21` [Example 130, (E,E)-6-Benzyloxy-3,4-dihydro-1-(penta-1,3-dienyl)isoquinoline], for which the half-inhibitory concentration (IC50) runs as follows: under setting [1], 3.6 µg/mL (≈ 11.9 µM); under setting [2], 5.4 µg/mL (≈ 17.8 µM).

Consider `CCCCOc1ccc2c(c1)CCN=C2/C=C/c1cccc2ccccc12` [Example 135, (E)-6-Butyloxy-3,4-dihydro-1-[2-(1-naphthyl)vinyl]isoquinoline], for which the IC50 reads like this: under setting [1], 1.3 µg/mL (≈ 3.66 µM); under setting [2], 1.6 µg/mL (≈ 4.5 µM).

Turning to `CC=CC1=NCCc2cc(OCCC)ccc21` [Example 137, 3,4-Dihydro-1-prop-1-enyl-6-propyloxyisoquinoline], the IC50 by setting is: under setting [1], 1 µg/mL (≈ 4.36 µM); under setting [2], 1.7 µg/mL (≈ 7.41 µM).

`CCCCOc1ccc2c(c1)CCN=C2/C(Br)=C/c1ccccc1` [Example 147, (Z)-6-Butyloxy-1-(1-bromo-2-phenylvinyl)-3,4-dihydroisoquinoline]: the IC50 reads like this: under setting [1], 0.2 µg/mL (≈ 0.52 µM); under setting [2], 0.3 µg/mL (≈ 0.781 µM).

Regarding `CCCCOc1ccc2c(c1)CCN=C2/C(Cl)=C/c1ccccc1` [Example 150], the half-inhibitory concentration (IC50) came to 0.2 µg/mL (≈ 0.588 µM) under setting [1] and 0.2 µg/mL (≈ 0.588 µM) under setting [2].

Take `Cl/C(=C\c1ccccc1)C1=NCCc2cc(OCc3ccccc3)ccc21` [Example 151, (Z)-6-Benzyloxy-1-(1-chloro-2-phenylvinyl)-3,4-dihydroisoquinoline]: the 50% inhibitory concentration (IC50) is 0.3 µg/mL (≈ 0.802 µM) under setting [1] and 0.3 µg/mL (≈ 0.802 µM) under setting [2].

Turning to `CCCCOc1ccc2c(c1)CCN=C2/C(C)=C/c1ccccc1` [Example 153, (E)-6-Butyloxy-3,4-dihydro-1-(2-phenyl-1-methylvinyl)isoquinoline], the 50% inhibitory concentration (IC50) is, setting by setting: under setting [1], 0.3 µg/mL (≈ 0.939 µM); under setting [2], 0.5 µg/mL (≈ 1.57 µM).
